This is an account of results in PubChem BioAssay AID1996.

Values after ≈ are worked out from the molar mass of the structure shown.

For the data set the following is noted: buffer; pH 7.4; 200.0 µM.
Regarding `COc1ccccc1NC1=NC(CO)(CO)CS1`, the solubility (kinetic) (usually solubility judged after dilution from a stock solution rather than from solid) was greater than 40.2 µg/mL.
The value for `NC(=O)C1Cc2ccccc2CN1S(=O)(=O)c1cccs1` (stereo unspecified) was greater than 48.4 µg/mL.
To `O=C(CSc1nc2cc(Cl)ccc2o1)NC1CC1` belongs greater than 42.4 µg/mL.
The value for `Cc1ccccc1CN(C)C(C)C(=O)NCc1ccccc1` (stereo unspecified) was 37.1 µg/mL (≈ 125 µM); that for `O=C(Cc1cccs1)NCc1ccccc1Br` was 24.8 µg/mL (≈ 79.9 µM).
As to `O=C(CNc1ccccc1F)Nc1cccc2ccccc12`, the kinetic solubility worked out at 10.4 µg/mL (≈ 35.3 µM).
For the molecule `O=C(NCCC(=O)N1CCCC1)c1ccccc1Cl`, the solubility (kinetic) was greater than 42.1 µg/mL.
To `O=C(C1CCCCC1)N1CCc2ccccc21` belongs 27.2 µg/mL (≈ 119 µM).
To `CCOc1ccc(N=C(C)C2=C(O)c3ccccc3C2=O)cc1` belongs less than 0.7 µg/mL.
To `O=C(CNC(=O)c1ccco1)Nc1ccncc1` belongs 36.4 µg/mL (≈ 148 µM); to `CN1C2CCC1CC(NC(=O)c1ccc(Cl)cc1)C2` (stereo unspecified), greater than 41.8 µg/mL; to `CCCCn1c(=O)[nH]c2nc3cc(NC(C)=O)ccc3nc2c1=O`, 2.3 µg/mL (≈ 7.03 µM).
With `Cn1c(COc2ccc([N+](=O)[O-])cc2)nnc1SCC(N)=O`, the solubility (kinetic) was greater than 48.5 µg/mL.
Molecule `CCCCC1=NN(C(=O)c2ccncc2)C(O)(C(F)(F)F)C1` (stereo unspecified) displayed a kinetic solubility greater than 47.3 µg/mL.
The value for `CCCCNC(=O)[C@@H]1CSC2c3ccccc3C(=O)N21` (stereo partly specified) was greater than 43.6 µg/mL; that for `O=C(CCc1ccc(S(=O)(=O)N2CCOCC2)cc1)Nc1ccc(F)cc1[N+](=O)[O-]` was 14 µg/mL (≈ 32 µM).
To `O=C(O)c1cc(S(=O)(=O)NCCOc2ccccc2)ccc1Cl` belongs greater than 53.4 µg/mL.
The value for `N#Cc1ccc(CSc2ccccn2)c(Cl)c1` was 3.4 µg/mL (≈ 13 µM); that for `Cc1nn(C)cc1S(=O)(=O)Nc1ccc(F)c(F)c1` was greater than 43.1 µg/mL; that for `COC(=O)c1ccc(S(=O)(=O)NCc2ccco2)n1C` was 44.3 µg/mL (≈ 148 µM).
`O=C(COC(=O)COc1ccccc1)NCCC1=CCCCC1`: the solubility (kinetic) came out at 38.5 µg/mL (≈ 121 µM).
The value for `COc1ccc(C=NOCC(=O)OCC(=O)Nc2ccc(OC)cc2)cc1` was 16.1 µg/mL (≈ 43.2 µM); that for `O=C(Nc1cccnc1)NC1CCCCC1` was greater than 32.9 µg/mL.
The value for `Cc1ccsc1-c1nc(CN2CCN(C)C(=O)[C@@H]2C)c(C)o1` was 40 µg/mL (≈ 125 µM); that for `COC(=O)C1CCN(Cc2nnc(-c3ccccc3)o2)CC1` was greater than 45.2 µg/mL; that for `Cc1ccc2cc3c(nc2c1)N(c1ccccc1)CC3` was less than 0.3 µg/mL.
On to `CCC1CCC2(CC1)NC(=O)N(CC(=O)N1CCc3ccccc31)C2=O` (stereo unspecified), for which the kinetic solubility is 3.4 µg/mL (≈ 9.57 µM).
The value for `Cc1cc(Nc2ccccc2Cl)nc(-c2ccccc2O)n1` was 1.3 µg/mL (≈ 4.17 µM); that for `NC(=O)COC(=O)c1ccc2c(c1)S(=O)(=O)c1ccccc1C2=O` was 7.5 µg/mL (≈ 21.7 µM).
To `Cc1cccc(N2CC(C(=O)OCC(=O)Nc3sccc3C(N)=O)CC2=O)c1C` (stereo unspecified) belongs 6.5 µg/mL (≈ 15.6 µM); to `Cc1cc(Cl)ccc1C(=O)C1CCCN(Cc2ccon2)C1` (stereo unspecified), 46.3 µg/mL (≈ 145 µM); to `O=C(CN1C(=O)C(=O)N(C2CCCC2)C1=O)Nc1ccccc1OC(F)F`, greater than 57.2 µg/mL.
The value for `Cc1ccc(S(=O)(=O)NC(=O)Nc2ccc(C)cn2)cc1` was greater than 45.8 µg/mL; that for `CC(C)C(OC(=O)c1ccco1)C(=O)NC1CCCC1` (stereo unspecified) was greater than 41.9 µg/mL; that for `C=CCn1c(=O)c(C(=O)Nc2ccc(C)cc2)c(O)c2ccccc21` was less than 0.4 µg/mL.
Molecule `CC(=O)c1ccc(OCC(C)Oc2ccc(C#N)cc2)cc1` (stereo unspecified) returned a kinetic solubility of 23.3 µg/mL (≈ 78.9 µM).
To `Cc1ccccc1CC(=O)Nc1ccon1` belongs 30.3 µg/mL (≈ 140 µM); to `O=C(CN1CCN(Cc2ccccc2Cl)CC1)N/N=C/c1ccccn1`, greater than 55.8 µg/mL.
To `COc1ccc(NC(=O)c2nc(SC)ncc2Cl)cc1` belongs 8.2 µg/mL (≈ 26.5 µM); to `O=C(CC1NCCN(Cc2ccccc2)C1=O)Nc1ccccc1` (stereo unspecified), 41.5 µg/mL (≈ 128 µM).
The value for `O=[N+]([O-])c1ccc(-c2cn(-c3ccccc3F)c(=S)[nH]2)cc1` was 0.6 µg/mL (≈ 1.9 µM); that for `c1csc(-c2nc(N3CCCCC3)no2)c1` was 3.8 µg/mL (≈ 16.1 µM).
Turning to `CN(CC(=O)Nc1ccccc1Cl)C(=O)CCNC(=O)Nc1ccccc1`, the solubility (kinetic) was greater than 58.3 µg/mL.
The value for `O=C(CCSCc1cccc(F)c1)NCCc1ccccc1` was 18.4 µg/mL (≈ 58 µM); that for `CC(=O)Nc1c(-c2ccc3ccccc3c2)nc2ccccn12` was 10.7 µg/mL (≈ 35.5 µM).
The value for `Nc1ccccc1C(=O)N1CCc2ccccc21` was greater than 35.7 µg/mL.
The value for `O=C(COc1ccc(Br)cc1F)NCC1(N2CCCCC2)CCCCC1` was greater than 64.1 µg/mL; that for `COc1ccccc1CNC(=O)CSc1n[nH]c(N)n1` was greater than 44 µg/mL; that for `C=CCOc1ccccc1CN1CCCCCC1` was 28.7 µg/mL (≈ 117 µM).
`Cc1cc(C)cc(NCc2ccncc2)c1` showed a kinetic solubility of 24.8 µg/mL (≈ 117 µM).
To `CC1=CCC(C(=O)O)C(C(=O)Nc2ccc(-c3nc4ccc(C)cc4s3)cc2)C1` (stereo unspecified) belongs greater than 61 µg/mL; to `O=C(NCCCCc1ccccc1)c1cccc([N+](=O)[O-])c1`, 8.5 µg/mL (≈ 28.5 µM); to `O=C(c1ccccc1)N1CCC2(CC1)NCCc1[nH]cnc12`, 42.7 µg/mL (≈ 144 µM).
The molecule `CCCCNC(=O)NCCN1CCOCC1` gave a kinetic solubility of 31.9 µg/mL (≈ 139 µM).
To `O=C(CSc1nccc(=O)[nH]1)Nc1ccc2ccccc2c1` belongs greater than 46.7 µg/mL; to `CCCCN(C(=S)SC)C1CCS(=O)(=O)C1` (stereo unspecified), 36.9 µg/mL (≈ 131 µM).
To `CCN1C(C#N)=C(C#N)N=C(C)CC1(C)C` belongs 29.8 µg/mL (≈ 138 µM); to `CCc1ccc(CN2C(=O)c3ccccc3C2C(=O)NC(C)CC)cc1` (stereo unspecified), 5.3 µg/mL (≈ 15.1 µM).
The value for `COc1ccc(C(=O)NCCCn2ccnc2)cc1[N+](=O)[O-]` was greater than 45.6 µg/mL; that for `CCC(Cc1ccccc1)NC(=O)C1CCCCC1` (stereo unspecified) was 11.6 µg/mL (≈ 44.7 µM); that for `COc1ccccc1NC(=O)COC(=O)/C=C/c1cccs1` was 4.4 µg/mL (≈ 13.9 µM).
The molecule `Cc1cc(C)cc(NC(=O)COC(=O)COc2ccc(N(C)S(=O)(=O)c3cccs3)cc2)c1` came in with a kinetic solubility of 9.1 µg/mL (≈ 18.6 µM).
Turning to `Cc1ccccc1NC(=O)CSc1ccncc1`, the solubility (kinetic) came out at 36 µg/mL (≈ 139 µM).
To `Cn1c(COc2ccccc2O)[n+](C)c2ccccc21.[Br-]` belongs greater than 52.4 µg/mL.
To `COCCCNC(=S)Nc1ccc(C)cc1[N+](=O)[O-]` belongs 40.1 µg/mL (≈ 142 µM); to `O=P(C(=NCCO)NO)(N1CCOCC1)N1CCOCC1`, greater than 48.3 µg/mL; to `Cc1cc(Nc2ccc(Cl)cc2)nc(N2CCOCC2)n1`, 1.8 µg/mL (≈ 5.91 µM).
The value for `Brc1ccc(-c2noc(-c3ccccc3)n2)o1` was less than 0.3 µg/mL; that for `COc1ccccc1NC(=O)c1ccc(NC(=O)C2CC2C)cc1` (stereo unspecified) was 10.3 µg/mL (≈ 31.8 µM).
The molecule `Cc1cccc(NC(=O)c2ccc(N3C(=O)C4CCCCC4C3=O)cc2)c1C` (stereo unspecified) gave a kinetic solubility of 20.6 µg/mL (≈ 54.7 µM).
To `CC1CCCC(NC(=O)COC(=O)CCc2ccccc2)C1C` (stereo unspecified) belongs 12.2 µg/mL (≈ 38.4 µM).
The value for `COc1cc(S(=O)(=O)NC2CCCCC2C)ccc1F` (stereo unspecified) was greater than 45.2 µg/mL; that for `CC(C)C(=O)O/N=C1\CCS(=O)(=O)c2sccc21` was greater than 43.1 µg/mL; that for `CS(=O)(=O)N1CCC(C(=O)Nc2ccc(C(N)=O)cc2)CC1` was 34.7 µg/mL (≈ 107 µM).
The value for `CN(C)c1cccc(C(=O)OCC(=O)NC2CCCC2)c1` was 36.6 µg/mL (≈ 126 µM); that for `CC1=C(C)C(OCCBr)N(c2cc(O)c(Cl)cc2F)C1=O` (stereo unspecified) was greater than 56.8 µg/mL.
As to `Cl.N=C(N=C(N)N)N1CCOCC1`, the solubility (kinetic) was greater than 31.1 µg/mL.
The value for `O=C(C1CCCCC1)N1CCN(c2nc(-c3ccc(F)cc3)cs2)CC1` was 1.5 µg/mL (≈ 4.02 µM); that for `CC(NC(=O)C1c2ccccc2Oc2ccccc21)C1CCCO1` (stereo unspecified) was 37.8 µg/mL (≈ 117 µM); that for `NCCc1nc2ccccc2s1` was 23.2 µg/mL (≈ 130 µM).
To `COc1cc(/C=C/C(=O)OCC(=O)NCCc2ccc(F)cc2)ccc1OC(F)F` belongs 4 µg/mL (≈ 9.45 µM); to `Cc1cc(=O)oc2cc(NC(=O)C3CCCC3)ccc12`, 3 µg/mL (≈ 11.1 µM); to `CCC/C(O)=C1\C(=O)CC(C)(C)CC1=Nc1cccc([N+](=O)[O-])c1`, 42.6 µg/mL (≈ 129 µM).
To `COc1ccc(CNc2ccc3c(c2)ncn3C)cc1OC` belongs 29.7 µg/mL (≈ 99.9 µM).
Take `COc1ccc2nc(N(Cc3ccccc3)C(=O)CCNC(C)=O)sc2c1`: the solubility (kinetic) was 3.3 µg/mL (≈ 8.61 µM). Against the preceding molecule, the solubility kinetic is about 9-fold lower.
The value for `O=C(CSC1=NS(=O)(=O)c2ccccc2N1)Nc1ccccc1F` was greater than 54.8 µg/mL.
Regarding `CCOc1ccc(N2CC(C(=O)NCc3ccco3)CC2=O)cc1` (stereo unspecified), the solubility (kinetic) was greater than 49.3 µg/mL.
The value for `O=C(/C=C/c1ccccc1)Nc1cccnc1Oc1ccccc1F` was 2.7 µg/mL (≈ 8.08 µM).
`COc1ccccc1C1NC(=O)c2ccccc2O1` (stereo unspecified): the solubility (kinetic) is greater than 38.3 µg/mL.
To `Cc1ccc(C(=O)NC2CCN(C(=O)Nc3ccccc3)CC2)cc1` belongs 4.4 µg/mL (≈ 13 µM); to `Cc1nn(-c2ccccc2)c2[nH]c(=O)cc(C(F)F)c12`, greater than 41.3 µg/mL; to `CCC1(C)Cc2ccccc2C(=O)N1` (stereo unspecified), 25.2 µg/mL (≈ 133 µM).
Take `C=CCOc1ccc(CNCc2cccnc2)cc1.Cl`: the solubility (kinetic) is greater than 43.6 µg/mL.
The value for `Cc1ccc(NC(=O)c2cc3c(s2)CCCC3)cc1` was 4 µg/mL (≈ 14.7 µM); that for `Cn1c(=O)c2c(nc(Cl)n2CCOc2ccccc2)n(C)c1=O` was 6.7 µg/mL (≈ 20 µM).
`CC(=O)Nc1ccccc1` returned a kinetic solubility greater than 20.3 µg/mL.
To `Cc1cccc2c3c([nH]c12)CCN(C)C3` belongs greater than 30 µg/mL; to `CC1(C)C2CCC(C2)C1(C)NC(=O)C[N+](C)(C)C.[Cl-]` (stereo unspecified), 43.2 µg/mL; to `CN1CCC(N(C)C(=O)c2ccc(Cl)c(S(=O)(=O)N(C)c3ccc(Cl)cc3)c2)CC1`, greater than 70.6 µg/mL.
The value for `COc1cc2c(C(=O)NCCN(C)C)cn(CC(C)C)c(=O)c2cc1OC` was greater than 56.3 µg/mL.
As to `COc1cccc(CNC(=O)CCSCc2ccccc2F)c1`, the kinetic solubility came to 41.8 µg/mL (≈ 125 µM).
On to `CCn1c(=O)c([N+](=O)[O-])c(Cl)c2ccccc21`, for which the solubility (kinetic) amounted to 3.3 µg/mL (≈ 13.1 µM).
To `N#Cc1cccc(NC(=O)CSc2cccc[n+]2[O-])c1` belongs greater than 42.8 µg/mL; to `CCc1ccccc1NC(=O)N1CCCc2ccccc21`, 22.8 µg/mL (≈ 81.3 µM).
To `O=C(COC(=O)c1cccnc1Cl)NCC1CCCO1` (stereo unspecified) belongs greater than 44.8 µg/mL.
The value for `CC(C)CCN1CCN(Cc2ccon2)CC1CCO` (stereo unspecified) was greater than 42.2 µg/mL.
